Measurements taken from patent publication US9512474B2, “Molecular targets and methods for formulation screening and preservative efficacy testing” (LONZA WALKERSVILLE INC., priority 2011, dated 2016).
Where “and” joins values, the source holds several entries; their conditions need not be identical. Equal values may be shown once.

What was measured:
Type in all cases: cell-based
Escherichia coli [1] = experiment: Control plate of treated cells (colonies); conditions: 10^6 cells
Pseudomonas aeruginosa [2] = experiment: pre-rRNA RT-PCR viability assay (preservative efficacy testing)
Text: (§1) The specific systems for S. aureus, P. aeruginosa and S. epidermidis are designed on the 5′ end of the 23S rRNA. The three systems are species-specific. The forward primer hybridizes in the pre-rRNA region and the reverse primer and the forward probe in the mature rRNA region. The amplification is thus effective only if pre-rRNAs are present in the cells. FIG. 3 illustrates S. aureus, P. aeruginosa and S. epidermidis pre-rRNA-specific systems designed in the 5′ end of the 23S pre-rRNA for use with RT-PCR (forward primer, reverse primer, and forward probe).
(§2) Assays such as those disclosed herein, and assays developed under the guidelines of the provided examples, can be used in Formulation Screening and/or Preservative Efficacy Testing. An exemplary protocol is as follows: non-treated (or viable) and preservative-treated cells are analyzed in parallel with the same procedure and the same reagents: • Cells are calibrated to an expected density (CFU/ml) and collected by centrifugation on a filter membrane. • Two milliliters of RNA Booster (nutrients) are applied to the membrane of the filtration unit and these are incubated two hours for bacteria and four hours for fungi at 35° C.±2° C. (or appropriate temperature). • After incubation, the filtration units are centrifuged to remove the RNA Booster and 1.5 milliliters of lysis buffer are added to each membrane. • Cell lysates are recovered manually by pipetting and transferred into a lysis tube for a mechanical lysis process. • Lysate is then transferred in a sample prep tube. • RNA is extracted and purified using a known nucleic acid isolation method (i.e., RNA magnetic beads, silica resin). • DNA is removed by DNAse treatment to ensure predominantly an RNA target. • Eluted RNA is amplified by RT-PCR. The master mix used for the RT-PCR contains all reagents needed for the RT-PCR including specific primers and probe targeting the pre-rRNA or EF-3 mRNA sequences.
(§3) The referenced guidelines followed for this assay are the European Pharmacopoeia (EP)—Chapter 5.1.3 <<Efficacy of Antimicrobial Preservation>> and the United States Pharmacopeia (USP)—Chapter 51 <<Antimicrobial Effectiveness Testing>>. The value obtained by RT-PCR for the non-treated cells is compared to the value obtained for the treated cells. As used herein Ct stands for threshold cycle; i.e., the intersection between an amplification curve and a threshold line. According to the EP requirements, in a positive result as disclosed herein the difference of the Ct values is at least 3 logs, which corresponds to a ΔCt≧10 for bacteria and at least 2 logs, which corresponds to a ΔCt≧6.6 for fungi, after one day (24 hours) and seven days, respectively, for bacteria and fungi, of preservative treatment. USP requires data analysis after seven days and fourteen days for bacteria and fungi, respectively.
(§4) Preservative treatments were evaluated at high cells concentrations (10^6 and 10^5 cells per assay) that are commonly used for formulation screening. Five replicates at each cell concentration were analyzed. The Ct value corresponds to the RT-PCR cycle for which the level of fluorescence is outside the fluorescence background. The method compares Ct values for non-treated and treated cells and is expressed as the ΔCt.
(§5) The tables set forth below summarize the Ct values obtained for six bacteria and two fungi using six treatments: Heat, Isopropanol, Preservatives BAC, Poly-Q and IPBC and a commercial contact lens solution. Ct values obtained for non-treated cells (viable) are compared to Ct values obtained for treated cells. The ΔCt calculated is reported and must be ≧10 to meet the specification of 3 logs reduction for bacteria and must be ≧6.6 to meet the specification of 2 logs reduction for fungi. All assays are performed on the BD Max6 instrument from Becton Dickinson. Data are obtained by multiple operators on different days.

Staphylococcus aureus [3] = experiment: as above
Text: as §1, §2, §3, §4, §5

Serratia marcescens [4] = experiment: as above
Text: (§6) The specific systems for E. coli, B. subtilis and S. marcescens are designed on the 3′ end of the 16S rRNA transcript. The three systems are species-specific. In these examples, the reverse primer hybridizes on the pre-rRNA region and the forward primer and probe in the mature rRNA region. The amplification will therefore be effective only if pre-rRNAs are present in the cells. FIG. 2 illustrates E. coli, B. subtilis and S. marcescens pre-rRNA-specific systems designed in the 3′ end of the 16S pre-rRNA for use with RT-PCR (forward primer, reverse primer, and forward probe).
as §2, §3, §4, §5

Escherichia coli [5] = experiment: as above
Text: as §6, §2, §3, §4, §5

Pseudomonas aeruginosa [6] = experiment: Control plate of treated cells (colonies); conditions: 10^6 cells
Staphylococcus aureus [7] = experiment: Control plate of treated cells (colonies); conditions: 10^6 cells
Aspergillus brasiliensis [8] = experiment: Control plate of treated cells (colonies); conditions: from day 1 to day 7 at room temperature (day not specified); 10^6 cells
Candida albicans [9] = experiment: EF-3 mRNA RT-PCR viability assay (preservative efficacy testing); conditions: 10^5 cells
Text: The specific system for C. albicans is designed on the mRNA of the EF-3 gene. This system is species-specific. The forward primer, the forward probe and the reverse primer hybridize in the internal sequence of the mRNA of the EF-3 gene. The amplification is thus effective only if the EF-3 mRNAs are present in the cells. FIG. 5 illustrates C. albicans EF-3 mRNA specific system designed in the internal sequence of the EF-3 mRNA for use with RT-PCR (forward primer, reverse primer, and forward probe).
as §2, §3, §4, §5

Aspergillus brasiliensis [10] = experiment: pre-rRNA RT-PCR viability assay (preservative efficacy testing); conditions: 10^6 cells
Text: The specific system for A. brasiliensis is designed on the 5′ end of the 5.8S rRNA. This system is species-specific. The forward primer hybridizes in the pre-rRNA region and the reverse primer and the forward probe in the mature rRNA region. The amplification is thus effective only if pre-rRNAs are present in the cells. FIG. 4 illustrates A. brasiliensis pre-rRNA-specific systems designed in the 5′ end of the 5.8S pre-rRNA for use with RT-PCR (forward primer, reverse primer, and forward probe).
as §2, §3, §4, §5

Candida albicans [11] = experiment: Control plate of treated cells (colonies); conditions: from day 1 to day 14 at room temperature (day not specified); 10^5 cells
Serratia marcescens [12] = experiment: Control plate of treated cells (colonies); conditions: 10^6 cells
[13] = 24 H at room temperature, 10^5 cells
[14] = 24 H at room temperature, 10^6 cells
[15] = 1 H at room temperature, 10^5 cells
[16] = 1 H at room temperature, 10^6 cells

Benzalkonium Chloride [BAC]
Colonies on control plate of treated cells (Escherichia coli [1]; 24 H at room temperature): NC = Negative Control - Control plate of treated cells (10^6 cells) shows no colony on plate. | Mean Ct (Treated) (Pseudomonas aeruginosa [2]; [13]): 31.92 | Δ Ct Viable − Dead (Pseudomonas aeruginosa [2]; [13]): 12.39 | Mean Ct (Treated) (Pseudomonas aeruginosa [2]; [14]): 30.72 | Δ Ct Viable − Dead (Pseudomonas aeruginosa [2]; [14]): 14.53 | Ct Treated (Staphylococcus aureus [3]; [13]): 29.75 and 30.23 and 29.39 and 29.28 and 30.03 | Mean Ct (Treated) (Staphylococcus aureus [3]; [13]): 29.73 | Δ Ct Viable − Dead (Staphylococcus aureus [3]; [13]): 12.29 | Ct Treated (Staphylococcus aureus [3]; [14]): 26.23 and 27.50 and 26.54 and 26.71 and 26.64 | Mean Ct (Treated) (Staphylococcus aureus [3]; [14]): 26.72 | Δ Ct Viable − Dead (Staphylococcus aureus [3]; [14]): 12.65 | Mean Ct (Treated) (Serratia marcescens [4]; [13]): 36.13 | Δ Ct Viable − Dead (Serratia marcescens [4]; [13]): 20.09 | Ct Treated (Serratia marcescens [4]; [14]): 34.20 and 34.30 and 32.80 and 35.50 | Mean Ct (Treated) (Serratia marcescens [4]; [14]): 34.20 | Δ Ct Viable − Dead (Serratia marcescens [4]; [14]): 22.28 | Ct Treated (Escherichia coli [5]; [13]): 32.65 and 31.54 and 31.77 and 32.76 and 32.45 | Mean Ct (Treated) (Escherichia coli [5]; [13]): 32.23 | Δ Ct Viable − Dead (Escherichia coli [5]; [13]): 18.57 | Ct Treated (Escherichia coli [5]; [14]): 32.61 and 34.26 and 33.74 and 30.48 and 33.39 | Mean Ct (Treated) (Escherichia coli [5]; [14]): 32.90 | Δ Ct Viable − Dead (Escherichia coli [5]; [14]): 21.33 | Colonies on control plate of treated cells (Pseudomonas aeruginosa [6]; 24 H at room temperature): NC = Negative Control - Control plate of treated cells (10^6 cells) shows no colony on plate. | Colonies on control plate of treated cells (Staphylococcus aureus [7]; 24 H at room temperature): NC = Negative Control - Control plate of treated cells (10^6 cells) shows no colony on plate. | Colonies on control plate of treated cells (Aspergillus brasiliensis [8]): NC = Negative Control - Control plate of treated cells (10^6 cells) shows no colony on plate. | Ct Treated (Candida albicans [9]; Day 1 at room temperature): 33.70 and 32.70 and 31.60 and 29.30 | Mean Ct (Treated) (Candida albicans [9]; Day 1 at room temperature): 32.00 | Δ Ct Viable − Dead (Candida albicans [9]; Day 1 at room temperature): 13.90 | Mean Ct (Treated) (Candida albicans [9]; Day 7 at room temperature): 33.67 | Δ Ct Viable − Dead (Candida albicans [9]; Day 7 at room temperature): 15.57 | Mean Ct (Treated) (Candida albicans [9]; Day 14 at room temperature): 32.23 | Δ Ct Viable − Dead (Candida albicans [9]; Day 14 at room temperature): 14.13 | Ct Treated (Aspergillus brasiliensis [10]; Day 1 at room temperature): 21.80 and 21.60 and 22.10 | Mean Ct (Treated) (Aspergillus brasiliensis [10]; Day 1 at room temperature): 21.83 | Δ Ct Viable − Dead (Aspergillus brasiliensis [10]; Day 1 at room temperature): 11.63 | Ct Treated (Aspergillus brasiliensis [10]; Day 2 at room temperature): 22.40 and 21.90 and 23.90 | Mean Ct (Treated) (Aspergillus brasiliensis [10]; Day 2 at room temperature): 22.73 | Δ Ct Viable − Dead (Aspergillus brasiliensis [10]; Day 2 at room temperature): 12.53 | Ct Treated (Aspergillus brasiliensis [10]; Day 7 at room temperature): 22.60 and 24.70 and 22.50 | Mean Ct (Treated) (Aspergillus brasiliensis [10]; Day 7 at room temperature): 23.27 | Δ Ct Viable − Dead (Aspergillus brasiliensis [10]; Day 7 at room temperature): 13.07 | Colonies on control plate of treated cells (Candida albicans [11]): NC = Negative Control - Control plate of treated cells (10^5 cells) shows no colony on plate. | Colonies on control plate of treated cells (Serratia marcescens [12]; 24 H at room temperature): NC = Negative Control - Control plate of treated cells (10^6 cells) shows no colony on plate.

CC(C)O [Isopropanol]
Colonies on control plate of treated cells (Escherichia coli [1]; 1 H at room temperature): NC = Negative Control - Control plate of treated cells (10^6 cells) shows no colony on plate. | Ct Treated (Pseudomonas aeruginosa [2]; [15]): 34.62 and 34.83 and 34.29 and 33.99 and 38.81 | Mean Ct (Treated) (Pseudomonas aeruginosa [2]; [15]): 35.31 | Δ Ct Viable − Dead (Pseudomonas aeruginosa [2]; [15]): 10.99 | Ct Treated (Pseudomonas aeruginosa [2]; [16]): 34.59 and 33.28 and 33.21 and 34.18 and 33.26 | Mean Ct (Treated) (Pseudomonas aeruginosa [2]; [16]): 33.70 | Δ Ct Viable − Dead (Pseudomonas aeruginosa [2]; [16]): 13.45 | Ct Treated (Staphylococcus aureus [3]; [15]): 29.99 and 29.43 and 29.12 and 29.97 and 29.89 | Mean Ct (Treated) (Staphylococcus aureus [3]; [15]): 29.68 | Δ Ct Viable − Dead (Staphylococcus aureus [3]; [15]): 12.80 | Ct Treated (Staphylococcus aureus [3]; [16]): 26.32 and 26.40 and 25.27 and 24.94 and 26.57 | Mean Ct (Treated) (Staphylococcus aureus [3]; [16]): 25.90 | Δ Ct Viable − Dead (Staphylococcus aureus [3]; [16]): 13.09 | Ct Treated (Serratia marcescens [4]; [15]): 29.10 and 30.70 and 31.00 and 29.90 and 30.30 | Mean Ct (Treated) (Serratia marcescens [4]; [15]): 30.20 | Δ Ct Viable − Dead (Serratia marcescens [4]; [15]): 13.20 | Ct Treated (Serratia marcescens [4]; [16]): 26.90 and 26.20 and 25.90 and 25.40 and 25.50 | Mean Ct (Treated) (Serratia marcescens [4]; [16]): 25.98 | Δ Ct Viable − Dead (Serratia marcescens [4]; [16]): 13.18 | Ct Treated (Escherichia coli [5]; [15]): 33.02 and 33.36 and 32.52 and 31.38 and 31.93 | Mean Ct (Treated) (Escherichia coli [5]; [15]): 32.44 | Δ Ct Viable − Dead (Escherichia coli [5]; [15]): 17.56 | Ct Treated (Escherichia coli [5]; [16]): 32.91 and 32.51 and 32.31 and 32.98 and 33.93 | Mean Ct (Treated) (Escherichia coli [5]; [16]): 32.93 | Δ Ct Viable − Dead (Escherichia coli [5]; [16]): 21.00 | Colonies on control plate of treated cells (Pseudomonas aeruginosa [6]; 1 H at room temperature): NC = Negative Control - Control plate of treated cells (10^6 cells) shows no colony on plate. | Colonies on control plate of treated cells (Staphylococcus aureus [7]; 1 H at room temperature): NC = Negative Control - Control plate of treated cells (10^6 cells) shows no colony on plate. | Colonies on control plate of treated cells (Serratia marcescens [12]; 1 H at room temperature): NC = Negative Control - Control plate of treated cells (10^6 cells) shows no colony on plate.
